≈ marks a conversion by molar mass, not a printed value. Calls of active or inactive are those of the source. No cut-off for these calls is given here.
How the values were obtained:
[1] = tested on: Mycolicibacterium smegmatis; experiment: Antimicrobial activity against Mycobacterium smegmatis MC2 4517 harboring pYUB1062 plasmid overexpressing Mycobacterium tuberculosis Rv2671 RibD gene by broth microdilution method; assay type: functional
[2] = tested on: Mycolicibacterium smegmatis; experiment: Antimicrobial activity against Mycobacterium smegmatis MC2 4517 harboring pYUB1062 plasmid overexpressing Mycobacterium tuberculosis Rv0155 PntAA gene by broth microdilution method; assay type: functional
[3] = tested on: Mycolicibacterium smegmatis; experiment: Antimicrobial activity against Mycobacterium smegmatis MC2 4517 harboring pYUB1062 plasmid overexpressing Mycobacterium tuberculosis Rv3248c SahH gene by broth microdilution method; assay type: functional
[4] = tested on: Mycolicibacterium smegmatis; experiment: Antimicrobial activity against Mycobacterium smegmatis MC2 4517 harboring pYUB1062 plasmid overexpressing Mycobacterium tuberculosis Rv1187 RocA gene by broth microdilution method; assay type: functional
[5] = tested on: Mycolicibacterium smegmatis; experiment: Antimicrobial activity against Mycobacterium smegmatis MC2 4517 harboring pYUB1062 plasmid overexpressing Mycobacterium tuberculosis Rv0468 FadB2 gene by broth microdilution method; assay type: functional
[6] = tested on: Mycolicibacterium smegmatis; experiment: Antimicrobial activity against Mycobacterium smegmatis MC2 4517 harboring pYUB1062 plasmid overexpressing Mycobacterium tuberculosis Rv2691 CeoB/TrKA gene by broth microdilution method; assay type: functional
[7] = tested on: Mycolicibacterium smegmatis; experiment: Antimicrobial activity against Mycobacterium smegmatis MC2 5097 harboring pYUB1062 plasmid overexpressing Mycobacterium tuberculosis Rv2763c DfrA gene by broth microdilution method; assay type: functional
[8] = tested on: Mycolicibacterium smegmatis; experiment: Antimicrobial activity against Mycobacterium smegmatis MC2 4517 harboring pYUB1062 plasmid overexpressing Mycobacterium tuberculosis Rv1059 unknown gene by broth microdilution method; assay type: functional
[9] = tested on: Mycolicibacterium smegmatis; experiment: Antimicrobial activity against Mycobacterium smegmatis MC2 4517 harboring pYUB1062 plasmid overexpressing Mycobacterium tuberculosis Rv2623 universal stress protein gene by broth microdilution method; assay type: functional
[10] = tested on: Mycolicibacterium smegmatis; experiment: Antimicrobial activity against Mycobacterium smegmatis MC2 4517 harboring pYUB1062 plasmid overexpressing Mycobacterium tuberculosis Rv2858c Aldc gene by broth microdilution method; assay type: functional
[11] = tested on: Mycolicibacterium smegmatis; experiment: Antimicrobial activity against Mycobacterium smegmatis MC2 4517 harboring pYUB1062 plasmid overexpressing Mycobacterium tuberculosis Rv0926c unknown gene by broth microdilution method; assay type: functional
[12] = tested on: Mycolicibacterium smegmatis; experiment: Antimicrobial activity against Mycobacterium smegmatis MC2 4517 harboring pYUB1062 plasmid overexpressing Mycobacterium tuberculosis Rv2766 FabG5 gene by broth microdilution method; assay type: functional
[13] = tested on: Mycolicibacterium smegmatis; experiment: Antimicrobial activity against Mycobacterium smegmatis MC2 4517 harboring pYUB1062 plasmid overexpressing Mycobacterium tuberculosis Rv1996 universal stress protein gene by broth microdilution method; assay type: functional
[14] = tested on: Mycolicibacterium smegmatis; experiment: Antimicrobial activity against Mycobacterium smegmatis MC2 4517 harboring pYUB1062 plasmid overexpressing Mycobacterium tuberculosis Rv2971 probable oxidoreductase gene by broth microdilution method; assay type: functional, organism-based
[15] = tested on: Mycolicibacterium smegmatis; experiment: Antimicrobial activity against Mycobacterium smegmatis MC2 4517 harboring pYUB1062 plasmid overexpressing Mycobacterium tuberculosis Rv0753c MmsA gene by broth microdilution method; assay type: functional
[16] = tested on: Mycolicibacterium smegmatis; experiment: Antimicrobial activity against Mycobacterium smegmatis MC2 5089 harboring pYUB1062 plasmid overexpressing Mycobacterium tuberculosis Rv1484 InhA gene by broth microdilution method; assay type: functional
[17] = tested on: Mycolicibacterium smegmatis; experiment: Antimicrobial activity against Mycobacterium smegmatis MC2 4517 harboring pYUB1062 plasmid overexpressing Mycobacterium tuberculosis Rv0091 Mtn/Sah gene by broth microdilution method; assay type: functional, organism-based
[18] = tested on: Mycolicibacterium smegmatis; experiment: Antimicrobial activity against Mycobacterium smegmatis MC2 4517 harboring pYUB1062 plasmid overexpressing Mycobacterium tuberculosis Rv3777 probable oxidoreductase gene by broth microdilution method; assay type: functional
[19] = tested on: Mycobacterium tuberculosis; experiment: Antimicrobial activity against Mycobacterium tuberculosis H37Rv harboring pMV261::dfrA plasmid by MTT assay; assay type: functional, organism-based
[20] = tested on: Mycobacterium tuberculosis; experiment: Ratio of MIC for Mycobacterium tuberculosis H37RV harboring pMV261::InhA plasmid to MIC for wild-type Mycobacterium tuberculosis H37Rv; assay type: functional
[21] = tested on: Mycobacterium tuberculosis; experiment: Antimicrobial activity against Mycobacterium tuberculosis H37Rv harboring pMV261::InhA plasmid by MTT assay; assay type: functional, organism-based

| Structure (SMILES) | MIC [1] [µg/mL] | MIC [2] [µg/mL] | MIC [3] [µg/mL] | MIC [4] [µg/mL] | MIC [5] [µg/mL] | MIC [6] [µg/mL] | MIC [7] [µg/mL] | MIC [8] [µg/mL] | MIC [9] [µg/mL] | MIC [10] [µg/mL] | MIC [11] [µg/mL] | MIC [12] [µg/mL] | MIC [13] [µg/mL] | MIC [14] | MIC [15] [µg/mL] | MIC [16] [µg/mL] | MIC [17] | MIC [18] [µg/mL] | also measured |
| --- | --- | --- | --- | --- | --- | --- | --- | --- | --- | --- | --- | --- | --- | --- | --- | --- | --- | --- | --- |
| CCc1cc(C(N)=S)ccn1 [ETHIONAMIDE] | 9.4 (≈ 56.5 µM) | 9.4 (≈ 56.5 µM) | 9.4 (≈ 56.5 µM) | 9.4 (≈ 56.5 µM) | 9.4 (≈ 56.5 µM) | 9.4 (≈ 56.5 µM) | 9.4 (≈ 56.5 µM) | 9.4 (≈ 56.5 µM) | 9.4 (≈ 56.5 µM) | 9.4 (≈ 56.5 µM) | 9.4 (≈ 56.5 µM) | 9.4 (≈ 56.5 µM) | 9.4 (≈ 56.5 µM) | inactive | 9.4 (≈ 56.5 µM) | 150 (≈ 902 µM) | inactive | 9.4 (≈ 56.5 µM) | – |
| NNC(=O)c1ccncc1 [ISONIAZID] | 4.7 (≈ 34.3 µM) | 4.7 (≈ 34.3 µM) | 4.7 (≈ 34.3 µM) | 4.7 (≈ 34.3 µM) | 4.7 (≈ 34.3 µM) | 4.7 (≈ 34.3 µM) | 4.7 (≈ 34.3 µM) | 4.7 (≈ 34.3 µM) | 4.7 (≈ 34.3 µM) | 4.7 (≈ 34.3 µM) | 4.7 (≈ 34.3 µM) | 4.7 (≈ 34.3 µM) | 4.7 (≈ 34.3 µM) | inactive | 4.7 (≈ 34.3 µM) | 300 (≈ 2190 µM) | inactive | 4.7 (≈ 34.3 µM) | Activity [19]: Active; Ratio [20]: 20; Activity [21]: inactive |

Source: ChEMBL document CHEMBL1671707, “Mycobacterium tuberculosis dihydrofolate reductase is not a target relevant to the antitubercular activity of isoniazid” (Antimicrob Agents Chemother, 2010)
